According to publication PMC6747087, “Characterization of Tachyplesin Peptides and Their Cyclized Analogues to Improve Antimicrobial and Anticancer Properties” (International Journal of Molecular Sciences, 2019):
Read-outs that look alike come from different tables or passages of the source. Residues, ends and D or L forms follow the SMILES beside them.

Columns and labels:
[1] = test system: human red blood cells (RBCs); experiment: Hemolytic activity against human red blood cells; format: cell-based; conditions: human RBCs 0.25% (v/v), 1 h, 37 °C; mean ± SEM
Procedure: (§1) A small amount of blood was collected from three healthy human donors. The blood was immediately diluted in PBS and centrifuged 4–5 times for 1 min at 4000 rpm to wash and separate the human red blood cells (RBCs). RBCs suspension (0.25% (v/v) in PBS) was incubated with peptides with two-fold serial dilutions of the peptide (highest concentration tested was 128 µM, and the lowest was 0.25 µM) in a 96-well plate. Melittin, a membrane disruptive peptide, was used as control. The plates were incubated for 1 h at 37 °C. After incubation, the plates were centrifuged for 5 min at 1000 rpm to pellet any non-lysed RBCs. A total of 100 µL of the supernatant were transferred to a new 96-well plate. The hemoglobin released into the supernatant from lysed cells was measured by absorbance at 415 nm using the Tecan infinite M1000Pro multiplate reader (Männedorf, Switzerland).

[2] = Hemolytic activity against human red blood cells; format: cell-based; conditions: at 64 µM peptide, human RBCs, read-out: RBCs lysed (hemolysis)
Procedure: as §1

[3] = Cytotoxicity assay (resazurin); format: cell-based, Human; conditions: ± SEM, n ≥ 3; for CC50 at 2 h: human
Procedure: Cells were grown in cell culture flasks and incubated in a humidified atmosphere (5% CO2, 37 °C). The cancer cell lines HeLa and the control cell line HaCaT were grown in a DMEM medium supplemented with 1% (v/v) penicillin/streptomycin and 10% (v/v) fetal bovine serum (FBS). The cancer cell lines MM96L, HT144 and WM164 were grown in a RPMI medium supplemented with 1% (v/v) penicillin/[…], 10% (v/v) FBS, 20 mM L-glutamine, and 10 mM sodium pyruvate. Cell cultures were maintained by dilution upon reaching confluence, each 48–72 h. More information about the cell lines is available in Tables S2 and S3.
(§2) Cells were seeded into 96-well flat-bottom plates at 5 × 10^3 cells/well and incubated overnight. The medium was removed and replaced with 90 µL serum-free medium, 10 µL of 10x concentrated peptide solutions in PBS were added. PBS was added as blank and 0.1% (v/v) Triton X-100 was used to establish 100% of cell death. After 2 h incubation at 37 °C, 10 µL of filtered 0.05% (w/v) resazurin solution was added to each well [70]. Resazurin is converted to the pink and fluorescent compound resorufin by viable cells. After incubation overnight, the fluorescence intensity (λex = 565 nm and λem = 584 nm) was measured with the Tecan infinite M1000Pro multiplate reader (Männedorf, Switzerland).

[4] = test system: melanoma cell lines MM96L, HT144 and WM164; experiment: Cytotoxicity and selectivity (activity-toxicity index) for melanoma cell lines; format: cell-based; conditions: MHC inducing 10% (lower value) or 50% (higher value) cell death in human RBCs over median CC50 of melanoma lines
Procedure: as §2
The selectivity was calculated through the activity-toxicity index (ATI). ATI = MHC/MCC50, with MHC being the minimal concentration necessary to induce 10% or 50% cell death in human red blood cells and MCC50 the median of cytotoxic concentrations (CC50) of all tested melanoma cell lines.

[5] = test system: Pseudomonas aeruginosa biofilm; parameters: method as in PMID 18022289; conditions: rat model of ureteral stent infection; cited from earlier work
[6] = test system: E. coli DC2 CGSC 7139; experiment: MIC against planktonic bacteria (resazurin); format: cell-based, Escherichia coli; conditions: Mueller Hinton Broth
Procedure: (§3) S. aureus ATCC 25923, S. aureus ATCC 6538, E. coli ATCC 25922, and E. coli DC2 CGSC 7139 were grown in Mueller Hinton Broth (Sigma Aldrich, St. Luis, USA). Bacterial cultures in the exponential growth phase were diluted to an OD600nm of 0.001 and seeded into 96-well plates. Peptides at different concentrations, starting at 64 µM and with two-fold serial dilutions (i.e., 64, 32, 16, 8, 4, 2, 1, 0.5, 0.25, 0.125 and 0.0625 µM), were incubated with cells; 0.05% (v/v) resazurin was added to the cultures the next day and the conversion to resorufin was measured after 1 h of incubation at 37 °C using a 565 nm excitation and 584 nm emission wavelength, as above.

[7] = test system: E. coli ATCC 25922; experiment: MIC against planktonic bacteria (resazurin); format: cell-based, Escherichia coli; conditions: Mueller Hinton Broth
Procedure: as §3

[8] = test system: S. aureus ATCC 25923; experiment: MIC against planktonic bacteria (resazurin); format: cell-based, Staphylococcus aureus; conditions: Mueller Hinton Broth
Procedure: as §3

[9] = test system: S. aureus ATCC 6538; experiment: MIC against planktonic bacteria (resazurin); format: cell-based, Staphylococcus aureus; conditions: Mueller Hinton Broth
Procedure: as §3

[10] = test system: S. aureus ATCC 6538 biofilm; experiment: Activity against preformed biofilm (resazurin metabolic activity); format: cell-based, Staphylococcus aureus; conditions: cells remaining metabolically active at 32 µM, the highest concentration tested
Procedure: (§4) S. aureus ATCC 6538 (1 × 10^6 cfu/mL) was cultured in Tryptic Soy Broth, containing 0.25% (w/v) glucose and incubated in 96-well microtiter flat-bottomed polystyrene plates for 24 h at 37 °C. Preformed biofilms were then washed with Mueller Hinton Broth to remove non-adherent cells. Two-fold serial dilutions of each peptide (highest concentration tested was 32 µM and lowest was 0.25 µM) were added to the biofilms for 4 h. Untreated 24 h preformed biofilms were used as a control. The metabolic activity of biofilm-embedded cells was determined using a resazurin reduction fluorometric assay as previously described.

[11] = as above; format: cell-based, Staphylococcus aureus; conditions: 24 h preformed biofilm, 4 h peptide treatment, read-out: CC50 (reduction of 50% of the metabolically active cell population)
Procedure: as §4

[12] = in vitro; conditions: human, 25% (v/v) human serum
Procedure: The serum stability assay was carried out as previously described with some modifications. Briefly, tachyplesin variants were incubated in 25% (v/v) human serum diluted in phosphate-buffered saline (PBS) at a final concentration of 50 µM at 37 °C. Triplicates were collected at time 0 h and 24 h and the serum proteins were precipitated with acetonitrile (1:3 ratio) supplemented with 3% TFA. Samples were kept on ice for 10 min before centrifugation at 17,000× g for 10 min at 4 °C. The peptide containing supernatant of each sample was harvested and quantified using RP-HPLC (10 to 45% solvent B, 1%/min gradient). The percentage of peptide stability in human serum was calculated by comparing the area of the peptide peak obtained at 24 h to that at time 0 h. A linear peptide containing 18 amino acid residues ([…]) was included as a control susceptible to proteolytic degradation.

[13] = human serum, 2 h; cited from earlier work
[14] = mouse serum, 2 h; cited from earlier work
[15] = HT144, 2 h peptide in serum-free medium
[16] = WM164, 2 h peptide in serum-free medium

## CC[C@H](C)[C@@H]1NC(=O)CNC(=O)[C@H](CCCNC(=N)N)NC(=O)[C@H](Cc2ccc(O)cc2)NC(=O)[C@@H]2CSSC[C@H](NC1=O)C(=O)N[C@@H](Cc1ccc(O)cc1)C(=O)N[C@@H](CCCNC(=N)N)C(=O)N[C@@H](CCCCN)C(=O)N[C@H](C(=O)N[C@@H](CCCNC(=N)N)C(N)=O)CSSC[C@H](NC(=O)[C@H](Cc1c[nH]c3ccccc13)NC(=O)[C@@H](N)CCCCN)C(=O)N[C@@H](Cc1ccccc1)C(=O)N[C@@H](CCCNC(=N)N)C(=O)N[C@@H](C(C)C)C(=O)N2 [TIII, Tachyplesin III] (HELM PEPTIDE1{K.W.C.F.R.V.C.Y.R.G.I.C.Y.R.K.C.R.[am]}$PEPTIDE1,PEPTIDE1,3:R3-16:R3|PEPTIDE1,PEPTIDE1,7:R3-12:R3$$$V2.0; N-terminus assumed)
[1]
  HC50 (concentration required to induce 50% lysis in RBCs): 86.4 ± 12.2 µM
[2]; red blood cells in PBS
  hemolysis at 1 h: 41%
[3]; HaCaT keratinocyte cells, HaCaT non-cancerous control, 2 h peptide in serum-free medium
  CC50 at 2 h: 7.3 ± 0.5 µM
[3]; HeLa cervical cancer cells, 2 h peptide in serum-free medium
  CC50 at 2 h: 21.7 ± 1.1 µM
[3]; MM96L melanoma cells, 2 h peptide in serum-free medium
  CC50 at 2 h: 1.8 ± 0.1 µM
[3]; [15]
  CC50 at 2 h: 2 ± 0.1 µM
[3]; [16]
  CC50 at 2 h: 1.7 ± 0.1 µM
[4]
  Melanoma Selectivity (activity-toxicity index, ATI = MHC/MCC50): 5–48
[5]
  prevention of biofilm formation: prevent the formation of a Pseudomonas aeruginosa biofilm
[6]
  MIC: 0.25 to 0.5 µM
[7]
  MIC: 0.0625 to 0.5 µM
[8]
  MIC: 1 to 4 µM
[9]
  MIC: 4 to 8 µM
[10]
  Metabolically Active Cells: 43.3 ± 4.1%
[11]; Staphylococcus aureus, preformed S. aureus biofilm
  Concentration reducing biofilm metabolic activity by 50% at 4 h: 24.2 ± 4.1 µM

## [H][C@]12CSSC[C@]([H])(NC(=O)[C@]([H])([C@@H](C)CC)NC(=O)CNC(=O)[C@H](CCCNC(=N)N)NC(=O)[C@H](Cc3ccc(O)cc3)NC1=O)C(=O)N[C@@H](Cc1ccc(O)cc1)C(=O)N[C@@H](CCCNC(=N)N)C(=O)N[C@@H](CCCNC(=N)N)C(=O)N[C@H](C(=O)N[C@@H](CCCNC(=N)N)C(N)=O)CSSC[C@H](NC(=O)[C@H](Cc1c[nH]c3ccccc13)NC(=O)[C@@H](N)CCCCN)C(=O)N[C@@H](Cc1ccccc1)C(=O)N[C@@H](CCCNC(=N)N)C(=O)N[C@@H](C(C)C)C(=O)N2 [TI, Tachyplesin I] (HELM PEPTIDE1{K.W.C.F.R.V.C.Y.R.G.I.C.Y.R.R.C.R.[am]}$PEPTIDE1,PEPTIDE1,3:R3-16:R3|PEPTIDE1,PEPTIDE1,7:R3-12:R3$$$V2.0)
[1]
  HC50 (concentration required to induce 50% lysis in RBCs): 34.9 ± 2.8 µM
[2]
  hemolysis: 66%
[12]
  remaining at 24 h, 50 µM: 25%
[3]; [15]
  CC50: 1.7 ± 0.2 µM
[3]; HaCaT non-cancerous control, 2 h peptide in serum-free medium
  CC50: 11.6 ± 1.6 µM
[3]; HeLa, 2 h peptide in serum-free medium
  CC50: 13.1 ± 1.2 µM
[3]; MM96L, 2 h peptide in serum-free medium
  CC50: 1.5 ± 0.1 µM
[3]; [16]
  CC50: 2.5 ± 0.1 µM
[13]
  stability in serum: completely stable
[6]
  MIC: 0.5 to 1 µM
[7]
  MIC: 0.0625 to 0.5 µM
[8]
  MIC: 1 to 4 µM
[9]
  MIC: 4 to 8 µM
[14]
  stability in serum: completely stable
[11]
  Concentration reducing biofilm metabolic activity by 50%: 21.5 ± 2.2 µM
